# Tests used:
# Format in all cases: in vivo
# male BDF1 mice = assay: Monotherapy in adult mice: twice-weekly PTH-(1-34)-Fc versus daily PTH-(1-34), tibial BMD by pQCT
# Procedure: Daily PTH [PTH-(1-34)] was given at 80 μg/kg/day (20 nmol/kg/day).
# Briefly, male BDF1 mice (4 months of age) were treated twice per week by subcutaneous injection with various doses of PTH-(1-34)-Fc or with vehicle (PBS). Other mice were treated daily with SC injections of PTH-(1-34) at a dose of 80 μg/kg/day (20 nmol/kg/day), a treatment regimen which is optimal for increasing bone mass in rodents (M. Gunness-Hey and J. M. Hock, Metab. Bone Dis. & Rel. Res. 5:177-181, 1984). After 3 weeks, mice were sacrificed and tibiae were analyzed for bone mineral density (BMD) via pQCT (FIG. 10).
# [1] = tested on: aged ovariectomized (OVX) rats; assay: Monotherapy in aged ovariectomized (OVX) rats: twice-weekly treatment, BMD by DEXA and serum calcium
# Procedure: Eleven months after OVX, rats were treated twice per week with phosphate-buffered saline (PBS, vehicle) or with APD (0.5 mg/kg) or with PTH-(1-34)-Fc (50 nmol/kg). DEXA was performed weekly. Blood was drawn 24 hours after the second weekly injection, when the calcemic effects of PTH-Fc are typically maximal. The effects of PTH-Fc administration on lumbar BMD (FIG. 11A), tibia/femur BMD (FIG. 11B), femoral metaphysis BMD (FIG. 11C), and serum calcium (FIG. 11D) were determined.
# Sprague Dawley rats were OVX'd at 3 months of age and allowed to lose bone for 11 months. Other rats were sham-operated and treated twice per week with vehicle (PBS). OVX rats were treated twice per week with SC injections of either vehicle or the bisphosphonate APD (pamidronate, 0.5 mg/kg), or with PTH-(1-34)-Fc (50 nmol/kg) or with APD+PTH-(1-34)-Fc. BMD was determined weekly via dual energy X-ray absorptiometry (DEXA). Rats were sacrificed after 4 weeks of treatment. At the start of treatment, OVX rats had significant reductions in BMD at all skeletal sites analyzed, compared to vehicle-treated […] (FIG. 11, p<0.05, 2-way ANOVA).
# mice = assay: Hypercalcemia assay: murine hypercalcemia model, single SC injection, blood ionized calcium
# Procedure: Mice were challenged with vehicle (PBS, —X—), or with PTH-(1-34) (open symbols) or with PTH-(1-34)-Fc (closed symbols). Doses were 156 nmol/kg (circles), 469 nmol/kg (triangles) or 1,560 nmol/kg (squares). Data represent group means, n=6 mice/group.
# We tested the potency and duration of effect of PTH-(1-34)-Fc in a murine hypercalcemia model. Briefly, mice were injected once SC with varying doses of PTH-(1-34) or PTH-(1-34)-Fc, and peripheral blood was collected from the retroorbital sinus for determination of blood ionized calcium. The half-life and the potency of PTH-(1-34)-Fc was greater than that of PTH-(1-34), as evidenced by the sustained hypercalcemic response of mice to the former agent (FIG. 4). Hypercalcemia induced by PTH-(1-34) persisted for 6-24 h, while equimolar doses of PTH-(1-34)-Fc caused more sustained hypercalcemia (48-72 h). This duration of response is consistent with greater half-life of the PTH-(1-34)-Fc construct vs. PTH-(1-34).
# [2] = 3 weeks, PTH-(1-34) daily 80 μg/kg/day, PTH-(1-34)-Fc twice weekly, various doses
# [3] = two highest doses, 50 and 150 nmol/kg twice weekly
substance,measurement,setting,value
"PTH-(1-34)-Fc: human PTH-(1-34), SVSEIQLMHNLGKHLNSMERVEWLRKKLQDVHNF, linked at its C-terminus to an Fc domain",cancellous BMD compared to vehicle,male BDF1 mice; [2],dose-dependent increases
same,total tibial BMD compared to vehicle,male BDF1 mice; [2],dose-dependent increases
same,cortical BMD in the tibia,"male BDF1 mice; 3 weeks, PTH-(1-34) daily, PTH-(1-34)-Fc twice weekly, various doses",dose-dependent increase
same,bone density and bone volume compared to daily PTH-(1-34),"male BDF1 mice; adult mice, twice weekly dosing",greater increases in bone density and bone volume
same,cortical BMD versus vehicle or daily PTH-(1-34),"male BDF1 mice; highest dose twice weekly, p<0.05",significantly greater
same,cancellous BMD versus vehicle or daily PTH-(1-34),male BDF1 mice; [3],significantly greater
same,total BMD versus vehicle or daily PTH-(1-34),male BDF1 mice; [3],significantly greater
same,calcemic response,"[1]; 50 nmol/kg twice per week, alone",mild and transient hypercalcemic response
same,BMD at the femoral metaphysis,"[1]; PTH-(1-34)-Fc 50 nmol/kg twice per week, alone or with APD 0.5 mg/kg, p<0.05",significant increase in BMD
same,day after which hypercalcemic response resolved spontaneously,[1]; despite continued treatments,> 10 days
same,reversal of bone loss induced by one year of estrogen ablation,[1]; twice weekly dosing,more than 50%
same,duration of treatment at which BMD increase at the femoral metaphysis was significant,[1]; twice-weekly treatment,4 weeks
same,peak ionized calcium levels compared with an equimolar dose of PTH-(1-34),mice; highest dose,greater increase in peak ionized calcium levels
same,hypercalcemic response (area under the curve) relative to equimolar PTH-(1-34),mice; highest dose employed,2.6 fold
same,potency compared with PTH-(1-34),mice; hypercalcemic response,significantly greater
same,duration of hypercalcemia,"mice; single SC injection, equimolar doses, blood ionized calcium",48 to 72 h
